Key:
Experiment in all cases: relative viability (nuclei count vs DMSO), 5 days (fraction); higher = more cells survive
[1] = compound: CCn1c(-c2nonc2N)nc2cnc(Oc3cccc(NC(=O)c4ccc(OCCN5CCOCC5)cc4)c3)cc21 + Cc1nc(Nc2ncc(C(=O)Nc3c(C)cccc3Cl)s2)cc(N2CCN(CCO)CC2)n1 [Dasatinib] (partner 0.075 µM)
Procedure, shortened: (§1)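 Dosing by pin tool came one day after lung cancer cell lines were seeded in 1536-well plates, using either one drug or a fixed anchor-drug dose plus five library-drug doses (not always all listed) in √10 steps. After 5 days, nuclei were counted on 4× images. Relative viability is treated-well nuclei count divided by vehicle-well nuclei count, and values are medians of duplicate plates.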

[2] = compound: CCn1c(-c2nonc2N)nc2cnc(Oc3cccc(NC(=O)c4ccc(OCCN5CCOCC5)cc4)c3)cc21 + N=C(N)NC(=N)NCCc1ccccc1 [Phenformin] (partner 250 µM)
Procedure, shortened: as §1

[3] = compound: CCn1c(-c2nonc2N)nc2cnc(Oc3cccc(NC(=O)c4ccc(OCCN5CCOCC5)cc4)c3)cc21 + NC(=O)Nc1cc(-c2cccc(F)c2)sc1C(=O)N[C@H]1CCCNC1 [AZD7762] (partner 0.2 µM)
Procedure, shortened: as §1

Mirin + Decitabine = compound: N=C1NC(=O)/C(=C/c2ccc(O)cc2)S1 [Mirin] + Nc1ncn([C@H]2C[C@H](O)[C@@H](CO)O2)c(=O)n1 [Decitabine] (partner 2 µM)
Procedure, shortened: as §1

Row | Cell Line | relative viability ([1]; first compound 0.04 µM) | relative viability ([1]; first compound 0.1265 µM) | relative viability ([1]; first compound 0.4 µM) | relative viability ([1]; first compound 1.265 µM) | relative viability ([1]; first compound 4 µM) | relative viability ([2]; first compound 0.04 µM) | relative viability ([2]; first compound 0.1265 µM) | relative viability ([2]; first compound 0.4 µM) | relative viability ([2]; first compound 1.265 µM) | relative viability ([2]; first compound 4 µM) | relative viability ([3]; first compound 0.04 µM) | relative viability ([3]; first compound 0.1265 µM) | relative viability ([3]; first compound 0.4 µM) | relative viability ([3]; first compound 1.265 µM) | relative viability ([3]; first compound 4 µM) | relative viability (Mirin + Decitabine; first compound 0.25 µM) | relative viability (Mirin + Decitabine; first compound 0.7906 µM) | relative viability (Mirin + Decitabine; first compound 2.5 µM) | relative viability (Mirin + Decitabine; first compound 7.906 µM) | relative viability (Mirin + Decitabine; first compound 25 µM)
1 | 201T | 0.644 | 0.682 | 0.443 | 0.588 | 0.506 | 0.471 | 0.44 | 0.342 | 0.368 | 0.396 | 0.632 | 0.603 | 0.462 | 0.608 | 0.535 | 0.877 | 0.885 | 0.842 | 0.939 | 1
2 | A549 | – | – | – | – | – | 0.303 | 0.151 | 0.0713 | 0.0328 | 0.0406 | – | – | – | – | – | 0.311 | 0.298 | 0.278 | 0.305 | 0.301
3 | A-427 | 0.694 | 0.487 | 0.375 | 0.269 | 0.224 | 0.471 | 0.377 | 0.227 | 0.167 | 0.114 | 0.774 | 0.503 | 0.364 | 0.188 | 0.21 | 0.554 | 0.479 | 0.546 | 0.521 | 0.514
4 | ABC-1 | 0.54 | 0.51 | 0.414 | 0.311 | 0.372 | 0.23 | 0.266 | 0.209 | 0.277 | 0.217 | 0.96 | 0.663 | 0.445 | 0.402 | 0.625 | 1.09 | 0.898 | 1.16 | 0.883 | 0.715
5 | BEN | 0.276 | 0.238 | 0.174 | 0.186 | 0.232 | 0.29 | 0.275 | 0.21 | 0.235 | 0.228 | 0.683 | 0.532 | 0.388 | 0.385 | 0.468 | 0.553 | 0.711 | 0.661 | 0.67 | 0.522
6 | CAL-12T | 0.39 | 0.43 | 0.267 | 0.276 | 0.157 | 0.686 | 0.596 | 0.48 | 0.418 | 0.388 | 0.675 | 0.601 | 0.56 | 0.267 | 0.353 | – | – | – | – | –
7 | COR-L23 | 0.47 | 0.336 | 0.173 | 0.164 | 0.121 | 0.451 | 0.285 | 0.185 | 0.155 | 0.13 | – | – | – | – | – | 0.447 | 0.505 | 0.466 | 0.426 | 0.409
8 | COR-L 105 | 0.261 | 0.219 | 0.217 | 0.232 | 0.167 | 0.523 | 0.416 | 0.389 | 0.31 | 0.271 | – | – | – | – | – | 0.596 | 0.698 | 0.744 | 0.667 | 0.63
9 | ChaGo-K-1 | 0.592 | 0.442 | 0.365 | 0.394 | 0.395 | 0.599 | 0.413 | 0.306 | 0.351 | 0.398 | 0.978 | 0.867 | 0.738 | 0.596 | 0.581 | 0.412 | 0.476 | 0.545 | 0.516 | 0.434

— the supplement of paper PMC10307832
